Laboratory results reported in the supplement of paper PMC12513837.
± gives the standard deviation of the averaged measurements.

These test systems were tested with CC(=O)N1CCc2c(c(N3CCCc4cc(-c5cnn(C)c5)c(C(F)F)cc43)nn2C2CCC(CN3CCN(c4ccc5c(c4)C(=O)N(C4CCC(=O)NC4=O)C5=O)CC3)CC2)C1 [CBPD-409] (assay: AUC of viability dose-response curve (relative to vehicle, 8 doses up to 10 µM) (fraction); higher = less sensitive (more viable); extreme values may be limits of the assay).
Protocol: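 PRISM multiplexed pooled barcoded cell line viability screen at the Broad Institute, 887 cancer cell lines treated with CBPD-409 (p300/CBP PROTAC degrader) at 8 concentrations in threefold dilution, top dose 10 µM. The read-out is the area under the dose-response curve of relative viability versus vehicle (n=3). AUC < 0.3 is called strongly sensitive and AUC > 0.8 resistant.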

Test System	AUC of viability dose-response curve
BV173_HAEMATOPOIETIC_AND_LYMPHOID_TISSUE	0.271
CBAGPN_BONE	0.79
MFE319_ENDOMETRIUM	0.353
CHAGOK1_LUNG	0.748
GDM1_HAEMATOPOIETIC_AND_LYMPHOID_TISSUE	0.877
JURKAT_HAEMATOPOIETIC_AND_LYMPHOID_TISSUE	0.66
HEC1B_ENDOMETRIUM	0.998
HEPG2_LIVER	1
KS1_CENTRAL_NERVOUS_SYSTEM	0.307
HSC2_UPPER_AERODIGESTIVE_TRACT	0.502
H413_UPPER_AERODIGESTIVE_TRACT	0.842
COLO792_SKIN	0.804
HPAFII_PANCREAS	0.919
SNU423_LIVER	0.751
CL34_LARGE_INTESTINE	0.812
JHOM1_OVARY	0.99
HCC1359_LUNG	1
HUPT3_PANCREAS	0.687
TC205_BONE	0.543
HUT78_HAEMATOPOIETIC_AND_LYMPHOID_TISSUE	1
IGROV1_OVARY	0.956
NCIH1693_LUNG	0.949
NCIH2347_LUNG	0.648
SW480_LARGE_INTESTINE	1
UPCISCC116_UPPER_AERODIGESTIVE_TRACT	0.827

Test System	AUC of viability dose-response curve
NCIH358_LUNG	1
639V_URINARY_TRACT	0.515
A1207_CENTRAL_NERVOUS_SYSTEM	1
PANC0203_PANCREAS	0.751
PATU8988S_PANCREAS	0.253
NCIH460_LUNG	1
SKMEL30_SKIN	0.703
HT3_CERVIX	0.711
BHT101_THYROID	0.581
NCIH1876_LUNG	1
MDAMB175VII_BREAST	0.999
ASPC1_PANCREAS	0.845
CAPAN2_PANCREAS	1
KYSE180_OESOPHAGUS	0.929
PFSK1_CENTRAL_NERVOUS_SYSTEM	0.531
RDES_BONE	0.484
MCC142_SKIN	0.969
TM31_CENTRAL_NERVOUS_SYSTEM	0.826
NCIH1563_LUNG	0.445
NCIH747_LARGE_INTESTINE	1
TE6_OESOPHAGUS	0.914
ES2_OVARY	0.986
PANC1005_PANCREAS	1
KMS12BM_HAEMATOPOIETIC_AND_LYMPHOID_TISSUE	0.28
HEC251_ENDOMETRIUM	0.841

Test System	AUC of viability dose-response curve
5637_URINARY_TRACT	1
BICR56_UPPER_AERODIGESTIVE_TRACT	0.862
SNU308_BILIARY_TRACT	0.95
A427_LUNG	0.884
8305C_THYROID	0.823
HEC50B_ENDOMETRIUM	0.851
JMSU1_URINARY_TRACT	1
KOSC2CL343_UPPER_AERODIGESTIVE_TRACT	0.875
UACC62_SKIN	0.901
CCK81_LARGE_INTESTINE	0.86
CAL54_KIDNEY	0.502
HEL_HAEMATOPOIETIC_AND_LYMPHOID_TISSUE	0.267
LCLC103H_LUNG	1
ICC8_BILIARY_TRACT	1
OV17R_OVARY	0.712
NCIH1793_LUNG	0.838
COGE352_BONE	1
HUH7_LIVER	0.796
HEC116_ENDOMETRIUM	0.78
NCIH292_LUNG	0.831
MKN7_STOMACH	0.517
ISTMES2_PLEURA	0.579
TE1_OESOPHAGUS	0.884
SNU1041_UPPER_AERODIGESTIVE_TRACT	0.703
HS944T_SKIN	1

Test System	AUC of viability dose-response curve
LN18_CENTRAL_NERVOUS_SYSTEM	0.607
SNU668_STOMACH	0.999
JR_SOFT_TISSUE	0.34
ONCODG1_OVARY	1
RMUGS_OVARY	0.866
HKGZCC_BILIARY_TRACT	1
2313287_STOMACH	0.631
MKN74_STOMACH	0.493
KYSE30_OESOPHAGUS	0.619
CCLP1_BILIARY_TRACT	0.45
SUDHL1_HAEMATOPOIETIC_AND_LYMPHOID_TISSUE	0.75
NCIH2171_LUNG	1
HCC1195_LUNG	1
JOPACA1_PANCREAS	1
NCIH1581_LUNG	0.347
SG231_BILIARY_TRACT	0.46
CAL72_BONE	0.839
HCC1438_LUNG	0.893
ESS1_ENDOMETRIUM	0.901
SH10TC_STOMACH	0.626
SKPNDW_BONE	1
HCC38_BREAST	0.323
SNU886_LIVER	0.853
OVCAR8_OVARY	0.486
A3KAW_HAEMATOPOIETIC_AND_LYMPHOID_TISSUE	0.325

Test System	AUC of viability dose-response curve
HCT116_LARGE_INTESTINE	0.998
921_UVEA	0.336
SW756_CERVIX	0.437
NCIH226_LUNG	0.519
KELLY_AUTONOMIC_GANGLIA	0.234 ± 0.054
WM88_SKIN	0.893
ZR751_BREAST	0.411
U251MG_CENTRAL_NERVOUS_SYSTEM	0.873
ULA_HAEMATOPOIETIC_AND_LYMPHOID_TISSUE	0.813
CAOV3_OVARY	0.648
HCA1_CERVIX	0.811
MOLP2_HAEMATOPOIETIC_AND_LYMPHOID_TISSUE	0.555
PANC0403_PANCREAS	0.725
ICC9_BILIARY_TRACT	1
U178_CENTRAL_NERVOUS_SYSTEM	0.636
C80_LARGE_INTESTINE	0.689
CCLFPEDS0003T_SOFT_TISSUE	0.392
NP5_CENTRAL_NERVOUS_SYSTEM	0.488
NCIH1355_LUNG	1
COLO800_SKIN	0.67
NCIH1092_LUNG	1
HKA1_SKIN	1
